Assays:
[1] = tested on: Patients presenting symptoms of depression; assay: Hamilton Depression Rating scale and Beck Depression Inventory in depression; format: in vivo, human; details: with standard of care
Description: Patients presenting symptoms of depression, in addition to being provided standard of care for depression, are prescribed Mg-DHA or Mg Citrate capsules formulated to provide 150 mg of elemental magnesium, or DHA capsules for two weeks when recovery from depression is assessed.
Patients presenting symptoms of depression, in addition to being provided standard of care for depression, are prescribed Mg-DHA-LysoPC or Mg Citrate capsules formulated to provide 150 mg of elemental magnesium, or DHA-LysoPC capsules for two weeks when recovery from depression is assessed.
Patients presenting symptoms of depression, in addition to being provided standard of care for depression, are prescribed Mg-EPA or Mg Citrate capsules formulated to provide 150 mg of elemental magnesium, or EPA capsules for two weeks when recovery from depression is assessed.
(§1) Patients presenting symptoms of depression, in addition to being provided standard of care for depression, are prescribed Zn-DHA or zinc gluconate capsules formulated to provide a daily dosage of 30 mg of elemental zinc, or DHA capsules for two weeks when recovery from depression is assessed.
as §1, with “Zn-DHA-LysoPC” for “Zn-DHA”, “DHA-LysoPC” for “DHA”
Patients presenting symptoms of depression, in addition to being provided standard of care for depression, are prescribed Zn-EPA or zinc gluconate capsules that provide a daily dosage of 30 mg of elemental Zn, or EPA capsules for two weeks when recovery from depression is assessed.

rats [2] = assay: T-maze test (forced alternation or left-right discrimination task); format: in vivo; details: diet
Description: (§2) Mg-DHA composition is provided as supplement in standard rat feed. On an average, rats consume about 50 mg/Kg/day of elemental Mg, on a feeding schedule so as to maintain 85% of its free-feeding weight. In the control group, rats are fed either DHA or magnesium citrate (Mg Citrate) supplemented diet on schedule similar to test group. After habituation to the apparatus and pre-training, each rat undergoes 4 trials of standard T-maze test (Shoji et al, J. Vis. Exp. (60), e3300, DOI: 10.3791/3300 (2012)) on day 1 or day 21 of Mg-DHA, Mg Citrate, or DHA feeding. Rats are subject to either forced alternation task or left-right discrimination task. Behaviors in the T-maze apparatus is recorded and statistically analyzed by two way repeated measures analysis of variance. […] In another set of experiments, rats fed with DHA, Mg Citrate, or Mg-DHA for 21 days are subject to novel-object-location (NOL) tests.
(§3) Mg-DHA composition is provided as supplement in standard rat feed. On an average, rats consume about 50 mg/Kg/day of elemental Mg, on a feeding schedule so as to maintain 85% of its free-feeding weight. In the control group, rats are fed DHA-LysoPC or Mg Citrate supplemented diet on schedule similar to test group. After habituation to the apparatus and pre-training, each rat undergoes 4 trials of standard T-maze test (Shoji et al, J. Vis. Exp. (60), e3300, DOI: 10.3791/3300 (2012)) on day 1 or day 21 of Mg-DHA-LysoPC, Mg Citrate or DHA-LysoPC feeding. Rats are subjected to either forced alternation task or left-right discrimination task. Behaviors in the T-maze apparatus is recorded and statistically analyzed by two way repeated measures analysis of variance. […] In another set of experiments, rats fed with Mg Citrate, DHA-LysoPC, or Mg-DHA-LysoPC for 21 days are subjected to novel-object-location (NOL) tests.
(§4) Mg-EPA composition is provided as supplement in standard rat feed. On an average, rats consume about 50 mg/Kg/day of elemental Mg, on a feeding schedule so as to maintain 85% of its free-feeding weight. In the control group, rats are fed EPA or Mg Citrate supplemented diet on scheduled similar to test group. After habituation to the apparatus and pre-training, each rat undergoes 4 trials of standard T-maze test (Shoji et al, J. Vis. Exp. (60), e3300, DOI: 10.3791/3300 (2012)) on day 1 or day 21 of Mg-EPA, Mg Citrate, or EPA feeding. Rats are subjected to either forced alternation task or left-right discrimination task. Behaviors in the T-maze apparatus is recorded and statistically analyzed by two way repeated measures analysis of variance. […]
(§5) Zn-DHA composition is provided as supplement in standard rat feed. […] Behaviors in the T-maze apparatus is recorded and statistically analyzed by two way repeated measures analysis of variance. […]

rats [3] = assay: novel-object-location (NOL) tests; format: in vivo; details: diet
Description: as §2, §3, §4, §5

[4] = tested on: Patients presenting symptoms of migraine; assay: migraine pain relief on visual analog scale (VAS); format: in vivo, human; details: reviewed after 4 hours
Description: Patients presenting symptoms of migraine are prescribed Zn-DHA or zinc gluconate capsules formulated to provide a daily dosage of 30 mg of elemental zinc. The symptoms of migraine are reviewed after 4 hours. […] For each group of patients, Excedrin is prescribed as rescue medicine.
Patients presenting symptoms of migraine are prescribed Zn-DHA-LysoPC or zinc gluconate formulated to provide a daily dosage of 30 mg of elemental zinc. The symptoms of migraine are reviewed after 4 hours. […] For each group of patients, Excedrin is prescribed as rescue medicine.
Patients presenting symptoms of migraine are prescribed Zn-EPA capsules formulated to provide a daily dosage of 30 mg of elemental Zn. The symptoms of migraine are reviewed after 4 hours. […] For each group of patients, Excedrin is prescribed as rescue medicine.

[5] = 30 mg elemental zinc daily for two weeks, compared with the fatty acid alone or zinc gluconate
[6] = about 1 mg/kg body weight/day elemental Zn, day 1 or day 21, compared with the fatty acid alone or zinc gluconate
[7] = about 1 mg/kg/day elemental Zn for 21 days, compared with the fatty acid alone or zinc gluconate
[8] = 30 mg elemental zinc daily, compared with the fatty acid alone or zinc gluconate
[9] = 150 mg elemental magnesium for two weeks
[10] = about 50 mg/Kg/day elemental Mg, day 1 or day 21, compared with the fatty acid alone or Mg Citrate
[11] = about 50 mg/Kg/day elemental Mg for 21 days, compared with the fatty acid alone or Mg Citrate
[12] = 150 mg elemental magnesium daily, compared with the fatty acid alone or Mg Citrate

## CC/C=C\C/C=C\C/C=C\C/C=C\C/C=C\CCCC(=O)[O-].CC/C=C\C/C=C\C/C=C\C/C=C\C/C=C\CCCC(=O)[O-].[Zn+2] [Zn-EPA]
[1]; [5]
  Hamilton Depression Rating scale and Beck Depression Inventory scores: statistically significant improvement
Rats [2]; [6]
  working and reference memory: statistically significant increase
Rats [3]; [7]
  ability to recognize novel objects: statistically significant improvement
[4]; [8]
  pain relief on a visual analog scale (VAS): significant pain relief

## CC/C=C\C/C=C\C/C=C\C/C=C\C/C=C\C/C=C\CCC(=O)[O-].CC/C=C\C/C=C\C/C=C\C/C=C\C/C=C\C/C=C\CCC(=O)[O-].[Zn+2] [Zn-DHA]
[1]; [5]
  Hamilton Depression Rating scale and Beck Depression Inventory scores: statistically significant improvement
Rats [2]; [6]
  working and reference memory: statistically significant increase
Rats [3]; [7]
  ability to recognize novel objects: statistically significant improvement
[4]; [8]
  pain relief on a visual analog scale (VAS): significant pain relief

## CC/C=C\C/C=C\C/C=C\C/C=C\C/C=C\C/C=C\CCC(=O)[O-].CC/C=C\C/C=C\C/C=C\C/C=C\C/C=C\C/C=C\CCC(=O)[O-].[Mg+2] [Mg-DHA]
[1]; [9]
  Hamilton Depression Rating scale and Beck Depression Inventory scores: statistically significant improvement
Rats [2]; [10]
  working and reference memory: statistically significant increase
Rats [3]; [11]
  ability to recognize novel objects: statistically significant improvement
[4]; [12]
  pain relief on a visual analog scale (VAS): significant pain relief

## CC/C=C\C/C=C\C/C=C\C/C=C\C/C=C\CCCC(=O)[O-].CC/C=C\C/C=C\C/C=C\C/C=C\C/C=C\CCCC(=O)[O-].[Mg+2] [Mg-EPA]
[1]; [9]
  Hamilton Depression Rating scale and Beck Depression Inventory scores: statistically significant improvement
Rats [2]; [10]
  working and reference memory: statistically significant increase
Rats [3]; [11]
  ability to recognize novel objects: statistically significant improvement
[4]; [12]
  pain relief on a visual analog scale (VAS): significant pain relief

Reference: patent US20130123355A1, “Fatty acids and metal ions compositions and uses thereof” (priority 2011, published 2013)
